ChEMBL document CHEMBL4414618, “Structure-Activity Relationships of Fish Oil Derivatives with Antiallergic Activity in Vitro and in Vivo” (J Med Chem, 2019)

Experiments:
[1] = test system: RBL-2H3; test: (§1) Antiallergic activity in rat RBL2H3 cells assessed as inhibition of DNP-HSA-mediated degranulation by measuring decrease in beta-hexosaminidase activity preincubated for 30 mins followed by DNP-HSA stimulation and measured after 30 mins by 4-nitrophenyl 2-acetamido-2-deoxy-beta-D-glucopyranoside substrate based assay; format: functional, cell-based
[2] = test system: Mus musculus; test: (§2) Antiallergic activity in BALB/c mouse assessed as reduction in anti-DNP-IgE-mediated passive cutaneous anaphylaxis at 1000 mg/kg, po administered once daily for 5 days followed by anti-DNP-IgE stimulation on day 4 and subsequent DNP-HSA challenge on day 5 post 1 hr compound dose and measured after 30 mins by Evans blue dye-based spectrophotometric method relative to control; format: functional; design: scale not given: the % may be the effect or the level left
[3] = biological target: T1, Fatty-acid amide hydrolase 1 (Homo sapiens, UniProt O00519); test: Substrate activity at human FAAH expressed in baculovirus infected Sf9 cells assessed as docosahexaenoic acid formation incubated for 60 mins by HPLC analysis; format: ADME; conditions: sf9, 1 h
T1 sequence (O00519 whole entry): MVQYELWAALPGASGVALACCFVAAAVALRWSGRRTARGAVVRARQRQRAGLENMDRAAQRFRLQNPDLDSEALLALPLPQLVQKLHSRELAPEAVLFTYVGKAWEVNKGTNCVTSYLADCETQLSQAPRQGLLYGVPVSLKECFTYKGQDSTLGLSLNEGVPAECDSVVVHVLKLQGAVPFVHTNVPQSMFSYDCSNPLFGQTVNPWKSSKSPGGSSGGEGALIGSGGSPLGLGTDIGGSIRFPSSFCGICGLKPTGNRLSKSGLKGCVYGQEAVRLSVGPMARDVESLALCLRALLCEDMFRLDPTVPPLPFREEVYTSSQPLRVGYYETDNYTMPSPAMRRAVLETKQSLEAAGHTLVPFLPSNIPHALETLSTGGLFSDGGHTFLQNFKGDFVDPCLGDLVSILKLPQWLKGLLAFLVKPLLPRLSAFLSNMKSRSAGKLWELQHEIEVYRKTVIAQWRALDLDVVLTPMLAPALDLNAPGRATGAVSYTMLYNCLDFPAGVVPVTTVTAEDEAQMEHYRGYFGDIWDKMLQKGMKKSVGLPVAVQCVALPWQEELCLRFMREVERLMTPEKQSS

[4] = biological target: T1, Fatty-acid amide hydrolase 1; test: Inhibition of human FAAH expressed in baculovirus infected Sf9 cells using N-(6-methoxypyridin-3-yl)octanamide as substrate measured for 15 mins by fluorescence based assay
[5] = test system: RBL-2H3; test: as §1, with “incubated for 30 mins prior to FAAH inhibitor URB597 addition further incubated” for “preincubated”; format: functional, cell-based
[6] = test system: RBL-2H3; test: as §1, with “incubated for 30 mins prior to CB2 antagonist AM630 addition further incubated” for “preincubated”; format: functional, cell-based
[7] = test system: RBL-2H3; test: Ratio of IC50 for antiallergic activity in rat RBL2H3 cells assessed as inhibition of DNP-HSA-mediated degranulation by measuring decrease in beta-hexosaminidase activity to IC50 for antiallergic activity in rat RBL2H3 cells assessed as inhibition of DNP-HSA-mediated degranulation by measuring decrease in beta-hexosaminidase activity in presence of FAAH inhibitor URB597; format: functional
[8] = test system: Mus musculus; test: as §2, with “50” for “1000”; format: functional; design: scale not given: the % may be the effect or the level left

Row | Structure (SMILES) | IC50 [1] | further results
1 | CCCCC/C=C\C/C=C\C/C=C\CCCCCCC(=O)NCCO | > 50 µM | 
2 | CC/C=C\C/C=C\C/C=C\C/C=C\C/C=C\C/C=C\CCC(=O)NCC(=O)O | 24 µM | Activity [2]: 0%; Drug metabolism [3]: Metabolite_Detected; IC50 [4]: 8.6 µM
3 | CC/C=C\C/C=C\C/C=C\C/C=C\C/C=C\C/C=C\CCC(=O)NCCO | 25 µM | Activity [2]: 31%; IC50 [5]: 7.6 µM; IC50 [6]: 25 µM; Drug metabolism [3]: Metabolite_Detected; Ratio IC50 [7]: 3; IC50 [4]: > 50 µM
4 | CCCCCCCC/C=C\CCCCCCCCCCCC(=O)NCCO | > 50 µM | 
5 | CC/C=C\C/C=C\C/C=C\C/C=C\C/C=C\C/C=C\CCC(=O)NCC(O)CO (configuration not stated) | 17 µM | Activity [2]: 23%; Drug metabolism [3]: Metabolite_Detected; IC50 [4]: > 50 µM
6 | CC/C=C\C/C=C\C/C=C\C/C=C\C/C=C\CCCC(=O)NCCO | 24 µM | 
7 | CC/C=C\C/C=C\C/C=C\C/C=C\C/C=C\C/C=C\CCC(=O)NCCc1ccc(O)c(O)c1 | > 50 µM | 
8 | CCCCC/C=C\C/C=C\CCCCCCCCCCCC(=O)O | > 50 µM | 
9 | CC/C=C\C/C=C\C/C=C\C/C=C\C/C=C\C/C=C\CCC(=O)OCCO | > 50 µM | 
10 | CC/C=C\C/C=C\C/C=C\C/C=C\C/C=C\C/C=C\CCC(=O)NS(=O)(=O)c1ccc([N+](=O)[O-])cc1 | 15 µM | Activity [2]: 49%
11 | CC/C=C\C/C=C\C/C=C\C/C=C\C/C=C\C/C=C\CCC(=O)N1CCN(C)CC1 | > 50 µM | 
12 | CC/C=C\C/C=C\C/C=C\C/C=C\C/C=C\C/C=C\CCC(=O)NCC(C)O (configuration not stated) | 27 µM | 
13 | CCCCC/C=C\C/C=C\CCCCCCCCCCCC(=O)NCCO | > 50 µM | 
14 | CC/C=C\C/C=C\C/C=C\C/C=C\C/C=C\C/C=C\CCC(=O)NS(=O)(=O)c1ccc(C(F)(F)F)cc1 | 15 µM | Activity [2]: 19%
15 | CC/C=C\C/C=C\C/C=C\C/C=C\C/C=C\C/C=C\CCC(=O)NS(=O)(=O)c1ccc(O)cc1 | > 50 µM | 
16 | CC/C=C\C/C=C\C/C=C\C/C=C\C/C=C\C/C=C\CCC(=O)NS(C)(=O)=O | > 50 µM | 
17 | CC/C=C\C/C=C\C/C=C\C/C=C\C/C=C\C/C=C\CCC(=O)NCCOCCO | 18 µM | Activity [2]: 11%; Drug metabolism [3]: Metabolite_Detected; IC50 [4]: > 50 µM
18 | CC/C=C\C/C=C\C/C=C\C/C=C\C/C=C\C/C=C\CCC(=O)NS(=O)(=O)C1CC1 | > 50 µM | 
19 | CC/C=C\C/C=C\C/C=C\C/C=C\C/C=C\C/C=C\CCC(=O)N(C)CCOC | > 50 µM | 

Row | Structure (SMILES) | IC50 [1] | further results
20 | CC/C=C\C/C=C\C/C=C\C/C=C\C/C=C\C/C=C\CCC(=O)NS(=O)(=O)c1ccc(Cl)cc1 | 24 µM | 
21 | CC/C=C\C/C=C\C/C=C\C/C=C\C/C=C\C/C=C\CCC(=O)NS(=O)(=O)C(F)(F)C(F)(F)F | 21 µM | 
22 | CC/C=C\C/C=C\C/C=C\C/C=C\C/C=C\C/C=C\CCC(=O)N1CCOCC1 | > 50 µM | 
23 | CC/C=C\C/C=C\C/C=C\C/C=C\C/C=C\C/C=C\CCC(=O)NC1CCOCC1 | > 50 µM | 
24 | CC/C=C\C/C=C\C/C=C\C/C=C\C/C=C\C/C=C\CCC(=O)NS(=O)(=O)c1ccc(OC(F)(F)F)cc1 | 19 µM | Activity [2]: 11%
25 | CC/C=C\C/C=C\C/C=C\C/C=C\C/C=C\C/C=C\CCC(=O)NS(=O)(=O)c1ccc(C(=O)O)cc1 | > 50 µM | 
26 | CC/C=C\C/C=C\C/C=C\C/C=C\C/C=C\C/C=C\CCC(=O)NCCOC | > 50 µM | 
27 | CC/C=C\C/C=C\C/C=C\C/C=C\C/C=C\C/C=C\CCC(=O)NCC(=O)OC | > 50 µM | 
28 | CC/C=C\C/C=C\C/C=C\C/C=C\C/C=C\C/C=C\CCC(=O)NS(=O)(=O)c1ccc(C(=O)OC)cc1 | 30 µM | 
29 | CC/C=C\C/C=C\C/C=C\C/C=C\C/C=C\C/C=C\CCC(=O)N(CCO)CCO | > 50 µM | 
30 | CC/C=C\C/C=C\C/C=C\C/C=C\C/C=C\C/C=C\CCC(=O)OC(CO)CO | > 50 µM | 
31 | CCCCC/C=C\C/C=C\C/C=C\C/C=C\CCCC(=O)NCCO [ANANDAMIDE] | > 50 µM | 
32 | CCCCC/C=C\C/C=C\C/C=C\C/C=C\CCCC(=O)O [ARACHIDONIC ACID] | > 50 µM | 
33 | CCCCCCCC/C=C\CCCCCCCCCCCC(=O)O [ERUCIC ACID] | > 50 µM | 
34 | CC(C)(C(=O)O)c1ccc(C(O)CCCN2CCC(C(O)(c3ccccc3)c3ccccc3)CC2)cc1 (configuration not stated) [FEXOFENADINE] |  | Activity [8]: 39%
35 | CC/C=C\C/C=C\C/C=C\C/C=C\C/C=C\CCCC(=O)O [ICOSAPENT] | > 50 µM | 
36 | CC/C=C\C/C=C\C/C=C\CCCCCCCC(=O)O [LINOLENIC ACID] | > 50 µM | 
37 | CCCCC/C=C\C/C=C\CCCCCCCC(=O)NCCO [LINOLEOYLETHANOLAMIDE] | 48 µM | 

Now from value to compound, other results behind:

Row | IC50 [1] | Structure (SMILES) | further results
38 | 16 µM | CC/C=C\C/C=C\C/C=C\C/C=C\C/C=C\C/C=C\CCC(=O)NC(CO)CO | Activity [2]: 17%; Drug metabolism [3]: Metabolite_Notdetected; IC50 [4]: > 50 µM
39 | 18 µM | CC/C=C\C/C=C\C/C=C\C/C=C\C/C=C\C/C=C\CCC(=O)NCCCO | Activity [2]: 0%; Drug metabolism [3]: Metabolite_Detected; IC50 [4]: > 50 µM
40 | > 50 µM | CC/C=C\C/C=C\C/C=C\C/C=C\C/C=C\C/C=C\CCC(=O)Nc1cccc(O)c1 | 
41 | > 50 µM | CC/C=C\C/C=C\C/C=C\C/C=C\C/C=C\C/C=C\CCC(=O)NC(C)(C)C | 
42 | 24 µM | CC/C=C\C/C=C\C/C=C\C/C=C\C/C=C\C/C=C\CCC(=O)NC(C)CO (configuration not stated) | Activity [2]: 7%; Drug metabolism [3]: Metabolite_Notdetected; IC50 [4]: > 50 µM
43 | > 50 µM | CC/C=C\C/C=C\C/C=C\C/C=C\C/C=C\C/C=C\CCC(=O)N(C)CCO | 
44 | > 50 µM | CC/C=C\C/C=C\C/C=C\C/C=C\C/C=C\C/C=C\CCC(=O)NCCN | 
45 | 27 µM | CC/C=C\C/C=C\C/C=C\C/C=C\C/C=C\C/C=C\CCC(=O)NS(=O)(=O)c1ccc(C)cc1 | 
46 | > 50 µM | CC/C=C\C/C=C\C/C=C\C/C=C\C/C=C\C/C=C\CCC(=O)N1CCN(S(C)(=O)=O)CC1 | 
47 | > 50 µM | CC/C=C\C/C=C\C/C=C\C/C=C\C/C=C\C/C=C\CCC(=O)OCCOCCO | 
48 | > 50 µM | CC/C=C\C/C=C\C/C=C\C/C=C\C/C=C\C/C=C\CCC(=O)NS(=O)(=O)c1cccs1 | 
49 | 17 µM | CC/C=C\C/C=C\C/C=C\C/C=C\C/C=C\C/C=C\CCC(=O)NS(=O)(=O)C(C)(C)C | Activity [2]: 0%; Drug metabolism [3]: Metabolite_Notdetected; IC50 [4]: > 50 µM
50 | > 50 µM | CC/C=C\C/C=C\C/C=C\C/C=C\C/C=C\C/C=C\CCC(=O)NCCC | 
51 | > 50 µM | CC/C=C\C/C=C\C/C=C\C/C=C\C/C=C\C/C=C\CCC(=O)NC(C)C | 
52 | > 50 µM | CC/C=C\C/C=C\C/C=C\C/C=C\C/C=C\C/C=C\CCC(=O)NS(=O)(=O)c1ccccc1 | 
53 | 22 µM | CC/C=C\C/C=C\C/C=C\C/C=C\C/C=C\C/C=C\CCC(=O)NS(=O)(=O)Cc1ccccc1 | Activity [2]: 2%
54 | 47 µM | CC/C=C\C/C=C\C/C=C\C/C=C\C/C=C\C/C=C\CCC(=O)NS(=O)(=O)C(F)(F)F | 
55 | > 50 µM | CC/C=C\C/C=C\C/C=C\C/C=C\C/C=C\C/C=C\CCC(=O)NCC1CCOCC1 | 
56 | 29 µM | CC/C=C\C/C=C\C/C=C\CCCCCCCC(=O)NCCO | Activity [2]: 29%
57 | > 50 µM | CC/C=C\C/C=C\C/C=C\C/C=C\C/C=C\C/C=C\CCC(=O)Nc1ccccc1O | 
58 | 24 µM | CC/C=C\C/C=C\C/C=C\C/C=C\C/C=C\C/C=C\CCC(=O)NS(=O)(=O)c1ccc(F)cc1 | Activity [2]: 0%
59 | > 50 µM | CCCCC/C=C\C/C=C\C/C=C\CCCCCCC(=O)O [DIHOMO-GAMMA-LINOLENIC ACID] | 
60 | > 50 µM | CC/C=C\C/C=C\C/C=C\C/C=C\C/C=C\C/C=C\CCC(=O)O [DOCONEXENT] | Activity [2]: 6%
61 | > 50 µM | CCCCC/C=C\C/C=C\CCCCCCCC(=O)O [LINOLEIC ACID] | 
62 | > 50 µM | CCCCCCCC/C=C\CCCCCCCC(=O)O [OLEIC ACID] | 
63 | > 50 µM | CCCCCCCC/C=C\CCCCCCCC(=O)NCCO [OLEOYLETHANOLAMIDE] | 
